Experimental data: patent US9371568B2, “Markers associated with human double minute 2 inhibitors” (Novartis AG, priority 2012, dated 2016)

Legend:
[1] = test system: p21(CDKN1A); test: p21(CDKN1A) mRNA levels in SJSA-1 tumors (qRT-PCR); assay type: in vivo, mice; settings: SJSA-1 xenograft, 25-100 mg/kg q24h
Method: Briefly, total RNA was purified from cell pellets using the QIAshredder® (79654, Qiagen: Valencia Calif., USA) and RNeasy Mini Kit® (74106, Qiagen: Valencia Calif., USA) according to the manufacturer's instructions, with the exception that no DNA digestion was performed. Total RNA was eluted with 50 μL of RNase-free water. Total RNA was quantitated using the spectrophotometer ND-1000 Nanodrop® (Wilmington Del., USA). The qRT-PCR (Quantitative Reverse Transcriptase Polymerase Chain Reaction) was set up in triplicate per sample using the One-Step RT qPCR Master Mix Plus (RT-QPRT-032×, Eurogentec: Seraing, Belgium), with either control primers and primers for human p21(CDKN1A) (Hs00355782_m1, Applied Biosystems: Carlsbad Calif., USA) or mouse p21(CDKN1A) (Mm00432448_m1, Applied Biosystems: Carlsbad Calif., USA), namely TaqMan Gene Expression kit assays (20× probe dye FAM™ (or VIC)-TAMRA (or MGB); Applied Biosystems: Carlsbad Calif., USA). […] The number of cycles (CT) was determined, 2^−CT values were calculated, and the value normalized by dividing with the 2^−CT value obtained from the Gapdh control. Fold increase over control (i.e. DMSO- or vehicle-treated animals) was calculated and plotted in the bar graph.

[2] = test system: COLO 792 cells; test: Western blot of p53 pathway proteins, COLO 792 insensitive cells; assay type: cell-based; settings: increasing concentrations, 4 hours
Method: (§1) That the biomarkers in Table 2/FIG. 3 are reflective of a functional p53 pathway in MDM2i sensitive cells is verified in FIG. 4. […]. Whole cell lysates were prepared using a cell lysis buffer containing 50 mM Tris-HCl pH 7.5, 120 mM NaCl, 1 mM EDTA, 6 mM EGTA pH 8.5, 1% NP-40, 20 mM NaF, 1 mM PMSF and 0.5 mM Na-Vanadat, proteins were separated on NuPAGE 4-12% Bis-Tris Gel (Invitrogen # NP0322BOX, Lucerne; Switzerland), transferred onto Nitrocellulose Protran® BA 85 membranes (Whatman #10 401 261: Piscataway, N.J., USA) at 1.5 mA/cm^2 membrane for 2 h using a semi-dry blotting system, and immunoblotted with either an anti-phospho-p53 (Ser^15) (1/1000; Cell Signaling Technology #9284: Beverly, Mass., USA) rabbit polyclonal antibody, or an anti-p53 (Ab-6) (Pantropic, clone DO-1,) (1/1000; Calbiochem # OP43 San Diego, Calif., USA), an anti-MDM2 (Ab-1, clone IF2) (1/1000; Calbiochem # OP46), an anti-p21^WAF1(Ab-1, clone EA10) (1/500; Calbiochem # OP64: San Diego, Calif., USA) or an anti-α-Tubulin (Sigma # T5168: St. Louis, Mo., USA) mouse monoclonal antibodies, as indicated. […].

[3] = test system: p21(CDKN1A); test: p21(CDKN1A) protein levels in SJSA-1 tumors (immunohistochemistry); assay type: in vivo, mice; settings: SJSA-1 xenograft
Method: SJSA-1 xenograft tumors were collected and a 3-4 mm slice out of the middle of the tumor was removed, transferred into pre-labelled histo-cassettes and immersion-fixed in neutral buffered formalin (NBF) 10% (v/v) (pH 6.8-7.2) (J. T. Baker, Winter Garden, Fla., USA), pre-cooled at 4° C. Tumors were then fixed at room temperature for 24 hours, followed by processing in the TPC 15Duo (Tissue Processing Center, Medite) for paraffinization. Subsequently, the tumor slices were embedded in paraffin and from each paraffin block several 3 μm thick sections were cut on a rotary microtome (Mikrom International AG, Switzerland), spread in a 48° C. water-bath, mounted on glass slides (SuperFrost Plus, Thermo Scientific: Waltham Mass., USA), and dried in an oven either at 37° C. overnight or at 60° C. for 30 min. Dry tissue section were processed for immunohistochemistry (IHC) staining. p21(CDKN1A) immunohistochemistry has been performed using the mouse monoclonal antibody clone SX118 from Dako (Cat. No. M7202 Dako: Carpenteria Calif., USA) at a dilution of 1:50. Immunohistochemistry has been performed on a Ventana Discovery XT automated immunostainer using the N-Histofine Mousestain Kit (Nichirei Bioscience Inc, Japan) in combination with the DABMap Kit chromogen system, omitting the SA-HRP solution (Ventana/Roche Diagnostics GmbH, Mannheim, Germany). […]

[4] = test system: C3A cells; test: Western blot of p53 pathway proteins, C3A sensitive cells; assay type: cell-based; settings: 4 hours
Method: as §1

[5] = test system: SJSA-1, HCT116 p53wt/wt, SAOS2 and HCT116 p53-/- cells; test: Cell proliferation inhibition assay (YOPRO), p53 wild-type and p53 mutant cell lines; assay type: cell-based; settings: 72 hours, p53 wild-type vs p53 mutant cell lines
Method: Lucern, Switzerland). Briefly, cells are plated in 96-well plates overnight at 37° C. and are treated with increasing concentrations of MDM2i(1) or MDM2i(2) for 72 hours. Cell concentration in each well is then determined using the DNA-interacting fluorescent dye YOPRO according to the manufacturer's instructions and the fluorescent signal is measured using a Gemini-EM standard plate reader (Molecular Devices: Sunnyvale, Calif., USA).

[6] = test system: SJSA-1 osteosarcoma cells; test: SJSA-1 xenograft tumor growth in nude mice; assay type: in vivo; settings: 10-day treatment
Method: To further validate the predictive biomarkers disclosed in FIG. 3, in vivo human xenograft models either from human primary samples or from cell lines were directly injected and grown in tumors subcutaneously in mice and then assessed for MDM2i sensitivity. All the animals were allowed to adapt for 4 days and housed in a pathogen-controlled environment (5 mice/Type III cage) with access to food and water ad libitum. Animals were identified with transponders. Studies were performed according to procedures covered by permit number 1975 issued by the Kantonales Veterinäramt Basel-Stadt and strictly adhered to the Eidgenössisches Tierschutzgesetz and the Eidgenössische Tierschutzverordnung. […] Tumor volumes (TVol), determined from caliper measurements (using the formula I×w×h×τ/6) were measured three times per week. Tumor response was quantified by the change in tumor volume (endpoint minus starting value in mm^3) as the T/C, i.e.
[formula] In the case of a tumor regression, the tumor response was quantified by the percentage of regression of the starting TVol, i.e.
[formula] The body-weight (BW) of the mice was measured three times per week allowing calculation at any particular time-point relative to the day of initiation of treatment (day 0) of both the percentage change in BW (Δ % BW). […]

[7] = test system: SJSA-1 osteosarcoma line; settings: SJSA-1, amplified MDM2 gene; cited from earlier work
[8] = test system: human and mouse normal fibroblasts; settings: cited from earlier work

| Structure (SMILES) | p21(CDKN1A) mRNA levels in tumors [1] | phospho-p53 [2] | p21(CDKN1A) protein levels in tumors [3] | phospho-p53 ([4]; C3A cells, increasing concentrations) | expression of p53 target genes p21(CDKN1A) and MDM2 ([4]; C3A sensitive cells) | tumor cell proliferation [5] | T/C (tumor growth inhibition) ([6]; 25 mg/kg q24h) | T/C (tumor growth inhibition) ([6]; 50 mg/kg q24h) | apoptosis [7] | proliferation [7] | proliferation of normal fibroblasts [8] | viability of normal fibroblasts [8] |
| --- | --- | --- | --- | --- | --- | --- | --- | --- | --- | --- | --- | --- |
| COc1cc2c(cc1OC(C)C)[C@H](c1ccc(Cl)cc1)N(c1ccc(N(C)C[C@H]3CC[C@H](N4CCN(C)C(=O)C4)CC3)cc1)C(=O)C2 [MDM2i(1)] | significant dose-dependent induction | no significant increase | significant dose-dependent induction | no significant increase | strong de novo expression | hampering tumor cell proliferation in a p53-dependent manner | 50% | 3% | – | – | – | – |
| COc1ccc(C2=N[C@@H](c3ccc(Cl)cc3)[C@@H](c3ccc(Cl)cc3)N2C(=O)N2CCNC(=O)C2)c(OC(C)C)c1 [Nutlin-3] | – | – | – | – | – | – | – | – | increased apoptosis | reduced proliferation | proliferation of the cells was slowed | retained their viability |
| COc1cc2c(cc1OC(C)C)[C@H](c1ccc(Cl)cc1)N(c1ccc(N(C)C[C@H]3CC[C@H](N4CCNC(=O)C4)CC3)cc1)C(=O)C2 [MDM2i(2)] | – | – | – | – | – | hampering tumor cell proliferation in a p53-dependent manner | – | – | – | – | – | – |
